Results as given in ChEMBL document CHEMBL1201862, “PubChem BioAssay data set” (2004).
Active and inactive are the calls of the source.

Tests used:
[1] = Shn3 3'UTR reporter inhibitors, dose response, cell-based, Clone20 osteoblasts, firefly luciferase, cherry-picked (AID 624132); assay type: functional;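 also: firefly luciferase luminescence from reporter carrying the Shn3 3'UTR in osteoblasts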
[2] = HepG2 cell cytotoxicity, dose response, cytotoxicity control for Shn3 inhibitor project, CellTiter-Glo, cherry-picked (AID 624134); assay type: functional, cell-based
[3] = control 3'UTR Renilla luciferase suppression, dose response, counter-screen for Shn3 inhibitor project, cell-based, Clone20-Shn3RL, cherry-picked (AID 624133); assay type: functional
Fatty acid synthase [4] = biological target: T1, Fatty acid synthase (Homo sapiens, UniProt P49327); test: FAS thioesterase domain inhibitors, dose response, biochemical, endpoint fluorescence intensity, uHTS hits (AID 624327); assay type: functional;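 also: fluorescence from hydrolysis of an O-methyl fluorescein acyl ester substrate by the enzyme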
Fatty acid synthase [5] = biological target: T1, Fatty acid synthase; test: FAS thioesterase domain inhibitors, dose response, biochemical, kinetic fluorescence intensity (AID 624326); assay type: functional;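 also: rate of fluorescence rise from hydrolysis of a fluorogenic O-methyl fluorescein ester substrate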
Cytochrome P450 2D6 = Cytochrome P450 2D6 (Homo sapiens, UniProt P10635);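 also: CYP2D6 member of a cytochrome P450 panel assay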
[6] = inhibitors of intracellular T. cruzi replication, confirmation, NIH3T3 host cells, beta-gal luminescence (AID 2044); assay type: functional, cell-based;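 also: intracellular parasites grown in NIH/3T3 mouse fibroblasts as host cells; luminescent beta-galactosidase reporter signal from transgenic T. cruzi replicating inside host cells; inhibitors lower the luminescence signal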
[7] = microbe, parasite or virus in culture; assay type: functional; details: Mycobacterium tuberculosis
[8] = cytotoxicity toward NIH3T3 fibroblasts, dose response, counter-screen, cell-based, ATP luminescence, mouse fibroblasts (AID 2010); assay type: functional;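 also: cells exposed to compound for about 90 hours before reading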
[9] = Luminescence Cell-Based Dose Response HTS to Identify Inhibitors of 5'UTR Stem-Loop Driven Prion Protein mRNA Translation in H4 Neuroglioblastoma Cells. [Related pubchem assays: 1827 (Project Summary), 1813 (Primary HTS)]; assay type: functional
[10] = Luminescence Cell-Based Dose Response HTS to Identify Activators of Luciferase Translation or Activity in H4 […] Cells. [Related pubchem assays: 1829 (Project Summary), 1814 (Primary HTS)]; assay type: functional
Cytochrome P450 1A2 = biological target: T2, Cytochrome P450 1A2 (Homo sapiens, UniProt P05177);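 also: PubChem cytochrome P450 panel assay, CYP1A2 panel member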
T2 sequence (P05177 whole entry): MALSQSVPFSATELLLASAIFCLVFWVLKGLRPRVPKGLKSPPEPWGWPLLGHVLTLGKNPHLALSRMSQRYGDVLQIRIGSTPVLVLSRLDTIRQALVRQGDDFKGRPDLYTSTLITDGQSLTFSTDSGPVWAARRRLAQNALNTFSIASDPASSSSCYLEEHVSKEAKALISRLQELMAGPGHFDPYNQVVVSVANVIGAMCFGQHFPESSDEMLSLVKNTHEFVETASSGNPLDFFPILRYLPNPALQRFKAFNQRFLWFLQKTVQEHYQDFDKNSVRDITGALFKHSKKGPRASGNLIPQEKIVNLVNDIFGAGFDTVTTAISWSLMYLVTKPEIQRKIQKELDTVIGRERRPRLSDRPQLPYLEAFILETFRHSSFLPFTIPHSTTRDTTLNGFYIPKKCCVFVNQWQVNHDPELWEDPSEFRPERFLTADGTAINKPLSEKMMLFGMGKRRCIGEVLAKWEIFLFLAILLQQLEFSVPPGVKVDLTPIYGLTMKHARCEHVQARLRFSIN

Cytochrome P450 2C9 = Cytochrome P450 2C9 (Homo sapiens, UniProt P11712)
[11] = biological target: T3, Heat shock factor protein 1 (Mus musculus, UniProt P38532); test: inhibition of MG132-induced HSE-luciferase signal, confirmation, cell-based, NIH3T3, luminescence, dose retest (AID 2382); assay type: functional;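 also: NIH3T3 fibroblasts with HSF1-driven luciferase reporter stressed by proteasome inhibitor MG132; luminescence from HSF1-driven luciferase expression after 8 hours of MG132 stress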
T3 sequence (P38532 whole entry): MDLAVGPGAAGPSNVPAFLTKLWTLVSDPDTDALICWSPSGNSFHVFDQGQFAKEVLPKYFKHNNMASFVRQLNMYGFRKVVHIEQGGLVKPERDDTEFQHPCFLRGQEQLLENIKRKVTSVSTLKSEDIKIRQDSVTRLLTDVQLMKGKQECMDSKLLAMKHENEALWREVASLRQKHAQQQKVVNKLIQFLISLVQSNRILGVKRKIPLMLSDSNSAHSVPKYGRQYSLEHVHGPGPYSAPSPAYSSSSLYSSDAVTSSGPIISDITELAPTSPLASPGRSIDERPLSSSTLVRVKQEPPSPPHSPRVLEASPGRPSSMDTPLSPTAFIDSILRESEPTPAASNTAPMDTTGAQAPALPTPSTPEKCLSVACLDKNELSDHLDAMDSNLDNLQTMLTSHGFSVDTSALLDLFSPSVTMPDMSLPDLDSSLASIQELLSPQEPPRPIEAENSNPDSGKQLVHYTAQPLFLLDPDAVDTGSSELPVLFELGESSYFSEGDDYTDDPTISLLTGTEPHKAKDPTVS

[12] = inhibitors of SNCA 5'UTR-driven reporter translation, confirmation, H4 neuroglioma cells, luminescence (AID 1988); assay type: functional, cell-based
[13] = growth suppression of PTEN-null colon cells, dose response, cell-based, HCT116 PTEN knockout (AID 1047); assay type: functional;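 also: HCT116 colon tumor cells with PTEN knocked out; cells exposed to compound for 60 hours before readout; potency for loss of cell viability measured by luminescence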
[14] = growth suppression of beta-catenin-knockout colon cells, dose response, cell-based, HCT116, human colon tumor (AID 1045); assay type: functional;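 also: HCT116 colon tumor cells with beta catenin knocked out; cells exposed to compound for 60 hours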
[15] = HEp-2 cell cytotoxicity, dose response, cytotoxicity control for RSV inhibitor project, HTS (AID 2410); assay type: functional; details: human respiratory syncytial virus
INS1 = test: beta cell apoptosis inhibitors, cytokine rescue, dose response, luminescence, retest (AID 449756); assay type: functional, cell-based; details: Rattus norvegicus;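 also: cell death triggered by IL-1 beta plus TNF-alpha plus IFN-gamma mixture; protective hits raise ATP signal compared with cytokine alone wells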
[16] = biological target: T4, RNA-binding protein pos-1 (Caenorhabditis elegans, UniProt G5EF15); test: inhibitors of POS-1/mex-3 RNA binding, dose response, biochemical, fluorescence polarization (AID 1964);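 also: purified POS-1 fused to maltose binding protein made in E. coli; potency of compounds blocking POS-1 binding to fluorescent RNA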
T4 sequence (G5EF15 whole entry): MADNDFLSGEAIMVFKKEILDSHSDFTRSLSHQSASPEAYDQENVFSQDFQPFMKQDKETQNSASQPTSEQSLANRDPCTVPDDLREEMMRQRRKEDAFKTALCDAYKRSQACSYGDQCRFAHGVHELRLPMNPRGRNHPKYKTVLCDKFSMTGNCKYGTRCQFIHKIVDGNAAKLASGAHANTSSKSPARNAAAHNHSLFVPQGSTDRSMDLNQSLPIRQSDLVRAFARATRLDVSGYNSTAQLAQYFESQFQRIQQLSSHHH

[17] = biological target: T5, Zinc finger protein mex-5 (Caenorhabditis elegans, UniProt Q9XUB2); test: MEX-5/TCR-2 RNA interaction inhibitors, dose response, biochemical, C. elegans, fluorescence polarization (AID 1960)
T5 sequence (Q9XUB2 whole entry): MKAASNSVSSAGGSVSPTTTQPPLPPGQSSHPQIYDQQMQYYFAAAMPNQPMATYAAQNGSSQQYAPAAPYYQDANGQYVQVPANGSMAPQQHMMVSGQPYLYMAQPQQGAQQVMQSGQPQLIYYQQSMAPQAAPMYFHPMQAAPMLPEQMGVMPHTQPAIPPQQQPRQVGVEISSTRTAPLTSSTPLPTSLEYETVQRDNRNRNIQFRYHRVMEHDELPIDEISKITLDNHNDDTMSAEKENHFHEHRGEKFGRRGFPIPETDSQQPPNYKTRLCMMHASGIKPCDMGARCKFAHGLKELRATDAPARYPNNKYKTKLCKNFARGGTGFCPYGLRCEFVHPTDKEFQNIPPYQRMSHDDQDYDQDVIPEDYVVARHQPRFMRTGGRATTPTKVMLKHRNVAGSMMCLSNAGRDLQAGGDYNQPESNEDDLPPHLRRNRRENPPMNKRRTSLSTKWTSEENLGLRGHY

[18] = biological target: T6, Corticotropin-releasing factor receptor 2/Corticotropin-releasing factor-binding protein (Homo sapiens, UniProt P24387+Q13324); test: Dose Response confirmation of uHTS hits for small molecule antagonists of the CRF-binding protein and CRF-R2 receptor complex.; assay type: functional; details: read-out: IC50_Mean
T6 sequence (Q13324 whole entry): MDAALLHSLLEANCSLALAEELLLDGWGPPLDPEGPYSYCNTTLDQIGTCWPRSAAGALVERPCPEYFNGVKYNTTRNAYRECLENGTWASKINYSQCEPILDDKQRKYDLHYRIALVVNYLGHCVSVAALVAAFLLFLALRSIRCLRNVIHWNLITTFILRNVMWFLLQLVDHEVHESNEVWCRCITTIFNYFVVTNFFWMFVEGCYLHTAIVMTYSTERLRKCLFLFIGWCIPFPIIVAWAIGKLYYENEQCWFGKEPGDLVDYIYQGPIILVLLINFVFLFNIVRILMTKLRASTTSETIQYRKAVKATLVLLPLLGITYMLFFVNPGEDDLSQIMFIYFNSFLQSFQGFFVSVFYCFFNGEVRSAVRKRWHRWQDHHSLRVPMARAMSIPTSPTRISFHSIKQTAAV
T6 sequence (P24387 whole entry): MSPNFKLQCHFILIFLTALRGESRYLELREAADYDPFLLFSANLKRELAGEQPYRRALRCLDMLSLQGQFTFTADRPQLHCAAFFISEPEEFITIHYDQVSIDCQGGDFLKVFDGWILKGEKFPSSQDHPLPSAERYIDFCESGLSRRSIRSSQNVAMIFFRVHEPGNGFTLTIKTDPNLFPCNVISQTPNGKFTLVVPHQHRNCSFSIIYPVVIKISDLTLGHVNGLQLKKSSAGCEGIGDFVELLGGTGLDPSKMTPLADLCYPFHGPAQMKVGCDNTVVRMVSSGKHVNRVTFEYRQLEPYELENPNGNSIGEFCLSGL

[19] = biological target: T6, Corticotropin-releasing factor receptor 2/Corticotropin-releasing factor-binding protein; test: activators of CRF receptor 2 with binding protein – uHTS hits, confirmation (AID 602473); assay type: functional; details: read-out: EC50_Mean

T1 sequence (P49327 whole entry, the tested form may be a part): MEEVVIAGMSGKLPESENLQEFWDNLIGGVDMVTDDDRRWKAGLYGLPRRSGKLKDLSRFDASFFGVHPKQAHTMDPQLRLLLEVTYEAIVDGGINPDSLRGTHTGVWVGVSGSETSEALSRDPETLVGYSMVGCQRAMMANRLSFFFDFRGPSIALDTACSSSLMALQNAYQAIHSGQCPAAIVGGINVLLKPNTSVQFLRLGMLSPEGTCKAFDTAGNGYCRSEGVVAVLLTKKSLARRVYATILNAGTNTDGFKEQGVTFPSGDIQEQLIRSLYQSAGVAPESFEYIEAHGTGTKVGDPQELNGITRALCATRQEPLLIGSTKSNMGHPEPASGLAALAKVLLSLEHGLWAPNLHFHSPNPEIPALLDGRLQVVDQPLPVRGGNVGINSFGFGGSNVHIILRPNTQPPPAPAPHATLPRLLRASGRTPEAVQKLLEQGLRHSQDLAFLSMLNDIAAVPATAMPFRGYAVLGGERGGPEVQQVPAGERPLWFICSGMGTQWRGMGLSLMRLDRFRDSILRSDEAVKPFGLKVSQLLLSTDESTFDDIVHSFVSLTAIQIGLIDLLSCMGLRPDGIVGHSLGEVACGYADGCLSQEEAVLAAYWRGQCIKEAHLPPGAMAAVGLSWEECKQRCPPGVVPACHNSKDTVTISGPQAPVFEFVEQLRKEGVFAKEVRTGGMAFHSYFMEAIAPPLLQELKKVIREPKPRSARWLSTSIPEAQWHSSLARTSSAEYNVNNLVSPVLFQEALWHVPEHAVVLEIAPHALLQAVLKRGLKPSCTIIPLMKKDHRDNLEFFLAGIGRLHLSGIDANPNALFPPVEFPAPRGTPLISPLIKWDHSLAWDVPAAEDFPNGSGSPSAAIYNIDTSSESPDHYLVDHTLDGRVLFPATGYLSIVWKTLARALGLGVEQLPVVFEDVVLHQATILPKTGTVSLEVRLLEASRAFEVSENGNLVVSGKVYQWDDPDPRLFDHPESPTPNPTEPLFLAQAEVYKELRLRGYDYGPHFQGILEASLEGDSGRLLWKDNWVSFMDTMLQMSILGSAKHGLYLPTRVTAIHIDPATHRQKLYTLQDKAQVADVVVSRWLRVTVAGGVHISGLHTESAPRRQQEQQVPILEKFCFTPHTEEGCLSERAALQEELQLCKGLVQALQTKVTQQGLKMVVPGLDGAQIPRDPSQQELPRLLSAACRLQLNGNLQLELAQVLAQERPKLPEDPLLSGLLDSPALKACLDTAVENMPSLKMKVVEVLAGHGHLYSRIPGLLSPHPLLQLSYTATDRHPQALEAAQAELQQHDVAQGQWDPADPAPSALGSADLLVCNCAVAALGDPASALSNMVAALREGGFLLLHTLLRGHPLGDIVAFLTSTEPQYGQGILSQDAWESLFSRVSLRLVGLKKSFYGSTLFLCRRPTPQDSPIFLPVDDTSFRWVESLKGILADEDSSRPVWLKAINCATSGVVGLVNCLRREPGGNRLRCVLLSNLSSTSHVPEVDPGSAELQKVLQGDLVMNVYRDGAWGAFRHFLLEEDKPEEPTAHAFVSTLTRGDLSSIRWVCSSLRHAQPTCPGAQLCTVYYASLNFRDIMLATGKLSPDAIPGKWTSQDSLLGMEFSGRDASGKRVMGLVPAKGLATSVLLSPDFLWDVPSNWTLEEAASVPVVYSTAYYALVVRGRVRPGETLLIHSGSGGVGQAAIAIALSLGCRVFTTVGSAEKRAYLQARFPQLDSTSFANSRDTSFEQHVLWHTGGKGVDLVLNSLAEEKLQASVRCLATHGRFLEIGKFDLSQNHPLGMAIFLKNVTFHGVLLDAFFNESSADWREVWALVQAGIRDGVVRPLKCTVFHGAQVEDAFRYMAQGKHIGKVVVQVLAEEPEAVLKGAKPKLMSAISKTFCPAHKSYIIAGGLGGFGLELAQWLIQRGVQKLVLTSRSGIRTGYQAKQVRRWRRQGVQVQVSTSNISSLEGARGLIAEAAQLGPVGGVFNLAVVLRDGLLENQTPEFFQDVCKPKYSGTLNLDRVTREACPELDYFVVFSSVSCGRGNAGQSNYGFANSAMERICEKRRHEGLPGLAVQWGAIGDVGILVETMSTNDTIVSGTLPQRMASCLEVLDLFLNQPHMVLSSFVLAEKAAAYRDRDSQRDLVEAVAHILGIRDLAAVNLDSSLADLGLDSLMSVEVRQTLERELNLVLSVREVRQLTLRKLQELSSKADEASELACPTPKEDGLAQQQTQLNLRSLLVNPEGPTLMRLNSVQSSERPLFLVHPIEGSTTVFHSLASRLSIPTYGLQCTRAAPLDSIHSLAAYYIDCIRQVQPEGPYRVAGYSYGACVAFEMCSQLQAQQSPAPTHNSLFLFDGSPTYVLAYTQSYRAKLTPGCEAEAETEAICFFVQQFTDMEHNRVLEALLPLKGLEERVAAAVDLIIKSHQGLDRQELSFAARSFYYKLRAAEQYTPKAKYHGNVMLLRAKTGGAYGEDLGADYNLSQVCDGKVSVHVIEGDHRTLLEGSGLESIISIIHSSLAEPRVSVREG
Cytochrome P450 2C9, sequence (P11712 whole entry): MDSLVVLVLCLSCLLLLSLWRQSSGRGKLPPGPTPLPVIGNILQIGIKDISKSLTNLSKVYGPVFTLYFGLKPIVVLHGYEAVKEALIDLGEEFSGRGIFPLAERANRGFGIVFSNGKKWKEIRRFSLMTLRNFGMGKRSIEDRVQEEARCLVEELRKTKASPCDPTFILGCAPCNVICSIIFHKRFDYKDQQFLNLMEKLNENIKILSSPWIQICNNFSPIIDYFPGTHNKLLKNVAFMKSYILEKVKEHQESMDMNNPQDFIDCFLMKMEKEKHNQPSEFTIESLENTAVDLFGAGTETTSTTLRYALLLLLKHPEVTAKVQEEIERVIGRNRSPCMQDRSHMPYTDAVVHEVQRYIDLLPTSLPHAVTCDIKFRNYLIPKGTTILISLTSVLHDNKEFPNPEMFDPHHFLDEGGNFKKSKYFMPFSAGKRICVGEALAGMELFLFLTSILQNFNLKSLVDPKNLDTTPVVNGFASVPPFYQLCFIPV
Cytochrome P450 2D6, sequence (P10635 whole entry): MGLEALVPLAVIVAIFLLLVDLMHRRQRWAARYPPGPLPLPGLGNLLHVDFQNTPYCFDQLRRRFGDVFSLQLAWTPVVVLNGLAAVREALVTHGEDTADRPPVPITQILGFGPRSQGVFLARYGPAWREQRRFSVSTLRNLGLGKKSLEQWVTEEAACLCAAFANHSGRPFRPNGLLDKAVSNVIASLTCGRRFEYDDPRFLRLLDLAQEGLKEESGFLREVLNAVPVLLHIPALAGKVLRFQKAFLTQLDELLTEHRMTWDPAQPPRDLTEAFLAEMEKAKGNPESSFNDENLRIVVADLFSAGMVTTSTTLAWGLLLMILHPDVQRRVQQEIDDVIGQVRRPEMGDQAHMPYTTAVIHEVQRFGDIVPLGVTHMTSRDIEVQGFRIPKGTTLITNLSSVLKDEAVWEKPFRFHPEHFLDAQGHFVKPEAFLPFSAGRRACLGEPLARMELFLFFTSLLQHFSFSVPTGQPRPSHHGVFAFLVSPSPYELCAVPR

## CS(=O)(=O)c1ccc(C(=O)OCC(=O)Nc2cccnc2Cl)cc1[N+](=O)[O-]
[1]
  AC50: 9.09 µM (active)
[2]
  AC50: > 70 µM (inactive)
[3]
  AC50: 12.9 µM (active)

## Cc1cc(C)c(Cn2cnc(-c3ccc([N+](=O)[O-])cc3)c2)c(C)c1
Fatty acid synthase [4]
  IC50: 12.9 µM (active)
Fatty acid synthase [5]
  IC50: 12.6 µM (active)
Cytochrome P450 2D6
  AC50: 28.2 µM (inconclusive)

## CCc1ccc2oc(-c3cc(/N=C/c4cccc(OC)c4O)ccc3O)nc2c1
[6]
  EC50: 2.45 µM (active)
[7]
  CC50: > 40 µM (active)
[8]
  EC50: > 30 µM (not active)

## CC1CCCC(C)N1/N=C/c1c[nH]c2ccc(Br)cc12 (stereo not given)
[7]
  CC50: 24.4 µM (active)

## CN(C)c1ccc(-c2noc(-c3ccccc3O)n2)cc1
[9]
  EC50: 10.5 µM (inconclusive)

## CC(C)c1nc2oc3ccccc3c(=O)c2c(=O)n1-c1ccccc1
[10]
  EC50: 63.4 µM (active)
Cytochrome P450 1A2
  AC50: 39.8 µM (inconclusive)
Cytochrome P450 2C9
  AC50: 1.78 µM (inconclusive)

## c1ccc(-c2cn3nc(-c4ccccc4)sc3n2)cc1
[9]
  EC50: 0.583 µM (active)
[11]
  EC50: < 0.16 µM (active)
[12]
  EC50: 0.402 µM (inconclusive)

## CCCCNC(=O)C1CC(c2c(Cl)cccc2Cl)=NO1 (stereo not given)
[13]
  EC50: 21.8 µM (active)
[14]
  EC50: 29.6 µM (active)

## COc1ccc(-c2csc(NC(C)c3nc4cc(Cl)c(N5CCCCC5)cc4n3CCCO)n2)cc1 (stereo not given)
[7]
  CC50: > 40 µM (active)

## O=C(CNc1cccc2ccccc12)N/N=C/C(Br)=C/c1ccccc1
[13]
  EC50: 22.9 µM (active)
[14]
  EC50: 25.8 µM (active)

## Nc1c(C(=O)Nc2ccc(S(=O)(=O)N3CCCC3)cc2)sc2nc3cc4c(cc3cc12)CCC4
[15]
  CC50: 27.9 µM (active)
[13]
  EC50: 4.9 µM (active)
[14]
  EC50: 4.81 µM (active)
INS1
  AC50: 3.29 µM (active)

## COc1ccc(C(=O)Nc2nc(-c3ccc([N+](=O)[O-])cc3)c(-c3ccccc3)s2)cc1
[16]
  EC50: > 300 µM (not active)
[17]
  EC50: > 300 µM (not active)

## CC(Cc1cccs1)NC(=O)Nc1ccc(Cl)c(Cl)c1 (stereo not given)
[13]
  EC50: 17.4 µM (active)
[14]
  EC50: 22.6 µM (active)

## Cc1ccc(OCC(=O)Nc2ccc(O)c(-c3nc4ccccc4o3)c2)cc1
[13]
  EC50: 26.8 µM (active)
[14]
  EC50: 32.7 µM (active)

## CC1=C(C#N)C(=O)N(C)C(=O)/C1=C\N
[16]
  EC50: > 300 µM (not active)
[17]
  EC50: > 300 µM (not active)

## COc1ccc(C2C(C#N)=C(N)OC3=C2C(=O)CC(C)(C)C3)c(OC)c1OC (stereo not given)
[16]
  EC50: > 300 µM (not active)
[17]
  EC50: > 300 µM (not active)

## NC(=S)N/N=C/c1ccc(-c2ccc(SC(F)F)cc2)o1
[6]
  EC50: 0.895 µM (active)
[8]
  EC50: 12.7 µM (active)
[18]
  IC50: > 47.1 µM (inactive)
[19]
  EC50: > 53 µM (inactive)
Fatty acid synthase [4]
  IC50: 16.9 µM (active)
Fatty acid synthase [5]
  IC50: 80 µM (inactive)

## O=[N+]([O-])c1ccccc1-c1cc(-c2cc(Cl)ccc2O)n[nH]1
[13]
  EC50: 19.5 µM (active)
[14]
  EC50: 27 µM (active)

## O=C(Cc1ccc([N+](=O)[O-])cc1)Nc1cc(C(F)(F)F)cc(C(F)(F)F)c1
[6]
  EC50: 2.18 µM (active)
[7]
  CC50: 8.99 µM (active)
[8]
  EC50: 7.77 µM (active)

## O=C(COC(=O)c1[nH]nc2ccccc12)NC(=O)NC12CC3CC(CC(C3)C1)C2
[13]
  EC50: 14.8 µM (active)
[14]
  EC50: 22.1 µM (active)

## C=CCN=C(S)N1CCN(c2cccc(C(F)(F)F)c2)CC1
[16]
  EC50: > 300 µM (not active)
[17]
  EC50: > 300 µM (not active)

## COC1=CC(=O)c2ccccc2C1=O [2-Methoxy-1,4-naphthoquinone]
[7]
  CC50: 12.7 µM (active)

## CC(C)(C)c1nc(SCC(=O)Nc2nc3c(s2)CCCC3)c2ccccc2n1
[6]
  EC50: 1.45 µM (active)
[7]
  CC50: 38.7 µM (active)
[8]
  EC50: 12.5 µM (active)
